Tests used:
USP1 = target: T1, USP1 (Homo sapiens, UniProt O94782); assay: Ub-vinyl sulfone conjugation of USP1 in lysates of compound-treated HeLa cells; assay type: cell-based
T1 construct: endogenous in cells; host or cells: HeLa
Experimental: In one set of experiments, HeLa cells were incubated in the presence of 50 μM of selected inhibitors including the compound of Formula III (933) and the compound of Formula IV (527) for 2, 4, or 6 hours, followed by cell lysis. […] Lysates were incubated with the Ub-vinyl sulfone (Ub-Vs) reagent for 40 minutes. Proteins were electrophoresed on SDS-PAGE, transferred to nitrocellulose, and immunoblotted with the anti-USP1 antibody.
HeLa cells were incubated with the compound of Formula IV (527) for eight hours, followed by cell lysis and incubation of protein extract with Ub-vinyl sulfone.

[1] = system: FANCD2-Ub and FANCI-Ub levels in HeLa cells; assay: cell-based assay of monoubiquitinated FANCD2 and FANCI levels by immunoblotting; set-up: species or system human; conditions: eight hours, increasing concentrations, FIG. 3
Experimental: Candidate USP1 inhibitors from initial and secondary screens were then used in cell-based assays to look for USP1 inhibition in vivo using levels of FANCD2-Ub and PCNA-Ub as biomarkers for inhibition. For the cell-based assay, cells were treated with the candidate compounds and levels of monoubiquitinated FANCD2 and PCNA were tested both with and without DNA damage. USP1 inhibition was detected as high level of endogenous monoubiquitinated FANCD2 and PCNA. For this assay HeLa and HEK293T cells were treated with selected concentrations of these compounds and grown in Dulbecco's modified Eagle's medium supplemented with 15% heat-inactivated fetal calf serum in a humidified 5% CO2 incubator at 37° C. Damage was induced by both UV irradiation using Stratalinker (Stratagene) and treatment with mitomycin C (MMC, Sigma). After cell lysis, levels of monoubiquitinated FANCD2 and PCNA in whole cell lysate was tested by immunoblotting with anti-FANCD2 antibody (sc-20022; Santa Cruz Biotechnology) and anti-PCNA antibody (sc-56; Santa Cruz Biotechnology). Protection from chromosome aberrations were also tested in UV/MMC-damaged cells treated with candidate USP1 inhibitors using standard chromosome breakage assay. Yang et al. (2001) Blood 98:3435-40. […]

USP1/UAF1 complex = target: T2, USP1/UAF1 complex (Homo sapiens, UniProt O94782, G670A/G671A); assay: high throughput screening for inhibitors of USP1 deubiquitinating activity; assay type: biochemical; conditions: library of approximately 150,000 compounds
T2 construct: This modified full length USP1 clone was PCR amplified and subcloned into pFastBac-HT vectors; His tag (N); made in house; host or cells: Sf9 insect cells (baculovirus)
Experimental: The ubiquitin-Rho based enzyme assay for high throughput screening was established in a 384-well format. The reaction buffer containing and USP1/UAF1 complex were added in 384 well plates using automated liquid handling robot-Bio-Tek Microfill (Bio-Tek Instrments Inc., VT), followed by addition of the compounds (in DMSO) from the compound library plates to wells using a pin transfer robotic system at a final concentration of 10 μM. The reaction was composed of 0.1 nM purified USP1/UAF complex, 75 nM ubiquitin Rhodamine (Ub-Rho, Boston Biochem, U-600) and 2 μM ubiquitin. Fluorescence was monitored in a FluoStar Galaxy Fluorometer (BMG Labtech). Fluorescence emission at 535 nm (λex=485 nm) was measured in an automated plate reader Envision 2 (Perkin Elmer, Mass.).
In order to develop a highly sensitive assay with easy readout for high throughput detection, the fluorogenic compound Ubiquitin-7-amido-4-methylcoumarin (AMC-Ub, Boston Biochem) was used as a substrate for USP1/UAF1 enzyme complex. USP1 catalyzes the cleavage of AMC-Ub, releasing free AMC moiety, which leads to increase in fluorescence emission at 460 nm (λex=380 nm). Dang et al. (1998) Biochemistry 37:1868-79. Catalytic activity towards AMC-Ub increases 35 fold compared to USP1 enzyme alone. Initial enzyme assay development was performed in 96-well plates with 100 μl reaction volume containing 20 mM HEPES-KOH, 0.1 mg/ml ovalbumin (Sigma), 0.5 mM EDTA, and 10 mM DTT. 2.5 nM USP1/UAF1 enzyme complex was mixed with the reaction buffer, incubated at 37° C. for 10 minutes and then 0.3 μM AMC-Ub was added. Fluorescence was measured using a Fluostar Galaxy Fluorometer (BMG Labtech Inc.).
Once the preliminary enzyme assay was established in 96-well format, it was optimized for 384 wells for high throughput screening (HTS) of inhibitors. The major points to be considered were the volume of the reaction and amount of AMC-Ub substrate to be used in the assay. Since the price of AMC-Ub is very high, in order to make it a feasible assay for HTS, lowest workable amount of the AMC conjugate was used. Reaction volume was minimized to 30 μl in order to meet the recommendation of ICCB-L screening facility (Harvard). In the preliminary optimization experiment, a series of pilot experiments were performed with varying AMC-Ub concentrations (0.025 μM to 0.2 μM), along with the varying concentration of USP1/UAF1 complex (0.2 nM to 3.2 nM). […] After incubating the enzyme and buffer at 37° C. for 10 minutes, AMC-Ub was added and fluorescence emission at 460 nm (λex=380 nm) was measured in an automated plate reader Envision 2 (Perkin Elmer). Fluorescence reading for all time points up to one hour was noted and the data for different AMC-Ub concentration range was plotted with each USP1/UAF1 enzyme complex concentration. […]

T1 sequence (O94782 whole entry): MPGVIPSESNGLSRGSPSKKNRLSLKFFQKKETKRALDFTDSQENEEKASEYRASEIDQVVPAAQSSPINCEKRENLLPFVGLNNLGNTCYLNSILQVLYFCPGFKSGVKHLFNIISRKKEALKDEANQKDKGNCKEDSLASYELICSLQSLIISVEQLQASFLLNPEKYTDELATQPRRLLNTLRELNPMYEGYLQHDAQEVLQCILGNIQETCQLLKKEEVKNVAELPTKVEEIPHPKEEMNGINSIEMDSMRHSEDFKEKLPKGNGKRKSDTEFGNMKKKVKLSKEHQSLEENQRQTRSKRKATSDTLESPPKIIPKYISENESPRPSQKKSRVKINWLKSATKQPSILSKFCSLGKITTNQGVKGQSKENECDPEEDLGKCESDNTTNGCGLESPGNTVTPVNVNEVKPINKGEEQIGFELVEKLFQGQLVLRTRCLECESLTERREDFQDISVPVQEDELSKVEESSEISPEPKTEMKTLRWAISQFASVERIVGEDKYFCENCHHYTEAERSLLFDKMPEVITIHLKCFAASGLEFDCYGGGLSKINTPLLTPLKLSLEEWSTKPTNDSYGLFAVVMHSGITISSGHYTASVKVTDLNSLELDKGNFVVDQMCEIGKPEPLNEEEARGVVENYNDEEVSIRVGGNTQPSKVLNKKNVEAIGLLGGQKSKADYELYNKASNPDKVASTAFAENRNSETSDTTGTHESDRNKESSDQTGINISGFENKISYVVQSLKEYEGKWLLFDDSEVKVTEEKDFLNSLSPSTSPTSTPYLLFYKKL
T1 sequence (Q8TAF3 whole entry partner): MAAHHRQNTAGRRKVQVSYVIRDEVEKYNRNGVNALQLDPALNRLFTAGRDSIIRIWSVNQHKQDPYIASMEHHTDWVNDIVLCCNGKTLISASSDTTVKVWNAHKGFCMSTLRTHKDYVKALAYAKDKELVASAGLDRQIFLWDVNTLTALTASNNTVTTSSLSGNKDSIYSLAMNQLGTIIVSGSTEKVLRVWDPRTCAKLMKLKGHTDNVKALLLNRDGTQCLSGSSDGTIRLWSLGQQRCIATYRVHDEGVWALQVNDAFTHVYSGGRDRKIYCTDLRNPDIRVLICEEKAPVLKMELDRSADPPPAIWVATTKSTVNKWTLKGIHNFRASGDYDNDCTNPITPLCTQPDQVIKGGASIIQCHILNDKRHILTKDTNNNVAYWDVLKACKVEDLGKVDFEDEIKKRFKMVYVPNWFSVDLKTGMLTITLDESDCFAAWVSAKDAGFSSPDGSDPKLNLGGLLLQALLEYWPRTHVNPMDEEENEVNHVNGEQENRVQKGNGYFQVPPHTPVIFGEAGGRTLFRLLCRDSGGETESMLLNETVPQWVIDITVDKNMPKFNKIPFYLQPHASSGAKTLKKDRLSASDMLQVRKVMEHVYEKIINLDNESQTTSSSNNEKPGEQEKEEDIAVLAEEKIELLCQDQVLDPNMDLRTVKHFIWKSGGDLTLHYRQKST
T2 sequence (O94782 whole entry G670A/G671A): as the sequence (O94782 whole entry) above, with G670A, G671A counted along it
T2 sequence (Q8TAF3 whole entry partner): as the sequence (Q8TAF3 whole entry partner) above

SMILES: O=C1c2ccccc2C(=O)c2oc(-c3ccc(F)cc3)nc21 [Formula IV (527)]
- USP1 deubiquitinase activity (Ub-vinyl sulfone) (USP1; HeLa cells incubated eight hours, increasing concentrations, FIG. 3): dose-dependent blockade
- Ub-Vs conjugation of USP1 / deubiquitinase activity (USP1; HeLa cells, 50 μM inhibitor for 2, 4, or 6 hours, lysates with Ub-Vs 40 minutes, FIG. 2): potent inhibitor of deubiquitinase activity
- FANCD2-Ub levels [1]: dose-dependent increase
- FANCI-Ub levels [1]: dose-dependent increase
- identified as inhibitor of USP1 in initial in vitro screening (USP1/UAF1 complex): inhibitors of USP1

From patent publication US10653676B2 (Dana-Farber Cancer Institute, Inc., priority 2010, dated 2020)
